From ChEMBL document CHEMBL3244287, “Adrenergic agents. 4. Substituted phenoxypropanolamine derivatives as potential beta-adrenergic agonists” (J Med Chem, 1977)
Activity calls are given as the source filed them. No cut-off for these calls is given here.

What was measured:
[1] = biological target: Beta-1 adrenergic receptor (Cavia porcellus) (UniProt B0FL73)
[2] = biological target: Beta-2 adrenergic receptor (Cavia porcellus) (UniProt Q8K4Z4); conditions: Trachea
[3] = species: Cavia porcellus; test: Selectivity ratio of ED50 for beta-2 adrenergic receptor in guinea pig trachea over ED50 for beta-1 adrenergic receptor in guinea pig atria
[4] = biological target: Beta-1 adrenergic receptor (Cavia porcellus) (UniProt B0FL73); test: Ratio of isoproterenol ED50 to compound ED50 for beta-1 adrenergic receptor in guinea pig atria assessed as increase in rate of contraction of spontaneously beating right atria
[5] = biological target: Beta-1 adrenergic receptor (Cavia porcellus) (UniProt B0FL73); test: Ratio of N-tert-butyl-norepinephrine ED50 to compound ED50 for beta-1 adrenergic receptor in guinea pig atria assessed as increase in rate of contraction of spontaneously beating right atria
[6] = test system: Canis familiaris; test: Reduction of diastolic blood pressure in iv dosed anesthetized dog in presence of 2 mg/kg of propranolol, iv; format: functional, organism-based; parameters: dose 2 mg/kg; conditions: Canis lupus familiaris; Artery
[7] = test system: Canis familiaris; test: Reduction of heart rate in iv dosed anesthetized dog in presence of 2 mg/kg of propranolol, iv; format: functional, organism-based; parameters: dose 2 mg/kg; conditions: Canis lupus familiaris
[8] = test system: Canis familiaris; test: Reduction of diastolic blood pressure in iv dosed anesthetized dog; format: functional, organism-based; conditions: Canis lupus familiaris; Artery
[9] = test system: Beta-2 adrenergic receptor (Cavia porcellus); test: Ratio of isoproterenol ED50 to compound ED50 for beta-2 adrenergic receptor in guinea pig trachea assessed as relaxation of spontaneously contracted muscle
[10] = biological target: Beta-1 adrenergic receptor (Cavia porcellus) (UniProt B0FL73); test: Antagonist activity at beta-1 adrenergic receptor in guinea pig atria assessed as inhibition of isoproterenol-induced increase in rate of contraction of spontaneously beating right atria at 6.3 x 10^-5 M
[11] = biological target: Beta-1 adrenergic receptor (Cavia porcellus) (UniProt B0FL73); test: Agonist activity at beta-1 adrenergic receptor in guinea pig atria assessed as increase in rate of contraction of spontaneously beating right atria at 4.8 x 10^-5 M
[12] = biological target: Beta-2 adrenergic receptor (Cavia porcellus) (UniProt Q8K4Z4); test: Agonist activity at beta-2 adrenergic receptor in guinea pig trachea assessed as relaxation of spontaneously contracted muscle at 4.8 x 10^-5 M; parameters: scale not given: the % may be the effect or the level left
[13] = biological target: Beta-1 adrenergic receptor (Cavia porcellus) (UniProt B0FL73); test: Antagonist activity at beta-1 adrenergic receptor in guinea pig atria assessed as inhibition of isoproterenol-induced increase in rate of contraction of spontaneously beating right atria at 1 x 10^-3 M
[14] = biological target: Beta-1 adrenergic receptor (Cavia porcellus) (UniProt B0FL73); test: Antagonist activity at beta-1 adrenergic receptor in guinea pig atria assessed as inhibition of isoproterenol-induced increase in rate of contraction of spontaneously beating right atria at 8.4 x 10^-5 M
[15] = biological target: Beta-2 adrenergic receptor (Cavia porcellus) (UniProt Q8K4Z4); test: Intrinsic activity at beta-2 adrenergic receptor in guinea pig trachea assessed as relaxation of spontaneously contracted muscle relative to papaverine
[16] = biological target: Beta-1 adrenergic receptor (Cavia porcellus) (UniProt B0FL73); test: Agonist activity at beta-1 adrenergic receptor in guinea pig atria assessed as increase in rate of contraction of spontaneously beating right atria at 9 x 10^-5 M
[17] = biological target: Beta-1 adrenergic receptor (Cavia porcellus) (UniProt B0FL73); test: Antagonist activity at beta-1 adrenergic receptor in guinea pig atria assessed as inhibition of isoproterenol-induced increase in rate of contraction of spontaneously beating right atria at 3 x 10^-7 M

Beta-1 adrenergic receptor (Cavia porcellus), sequence (B0FL73 1-467): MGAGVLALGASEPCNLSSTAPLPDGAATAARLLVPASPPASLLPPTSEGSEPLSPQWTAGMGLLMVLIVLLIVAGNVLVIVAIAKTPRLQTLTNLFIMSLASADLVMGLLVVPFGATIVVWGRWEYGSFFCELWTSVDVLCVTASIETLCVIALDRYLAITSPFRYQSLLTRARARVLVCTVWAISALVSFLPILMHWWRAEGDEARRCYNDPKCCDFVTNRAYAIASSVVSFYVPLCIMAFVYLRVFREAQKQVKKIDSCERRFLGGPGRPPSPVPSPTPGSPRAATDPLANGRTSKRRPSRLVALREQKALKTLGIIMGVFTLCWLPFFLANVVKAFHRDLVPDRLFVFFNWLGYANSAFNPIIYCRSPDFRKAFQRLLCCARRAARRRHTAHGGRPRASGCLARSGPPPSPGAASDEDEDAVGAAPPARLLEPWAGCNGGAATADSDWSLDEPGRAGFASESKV
Beta-2 adrenergic receptor (Cavia porcellus) (UniProt Q8K4Z4), sequence (Q8K4Z4 whole entry, looked up): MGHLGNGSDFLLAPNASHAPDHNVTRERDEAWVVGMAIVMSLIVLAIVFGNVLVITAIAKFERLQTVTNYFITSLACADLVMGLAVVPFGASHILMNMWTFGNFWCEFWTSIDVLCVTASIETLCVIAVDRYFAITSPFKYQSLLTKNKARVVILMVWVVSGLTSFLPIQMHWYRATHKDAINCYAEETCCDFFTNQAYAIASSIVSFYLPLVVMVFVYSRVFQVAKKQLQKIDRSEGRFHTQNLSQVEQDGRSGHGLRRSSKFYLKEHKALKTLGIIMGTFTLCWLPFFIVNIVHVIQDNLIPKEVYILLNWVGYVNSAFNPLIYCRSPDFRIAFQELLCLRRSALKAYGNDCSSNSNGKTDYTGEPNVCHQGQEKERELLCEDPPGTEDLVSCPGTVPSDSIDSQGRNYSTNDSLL

Row | Compound | ED25 [1] | ED50 [2] | Ratio ED50 [3] | also measured
1 | CC(C)NCC(O)c1ccc(O)c(NS(C)(=O)=O)c1 (centres undefined) | 7.6 ×10⁻⁸ M | 2.6 ×10⁻⁸ M | 2.9 | –
2 | CC(C)(C)NCC(O)COc1ccc(O)c(O)c1 (centres undefined) | 1.1 ×10⁻¹¹ M | 3.2 ×10⁻¹⁰ M | 0.034 | Ratio ED50 [4]: 310; Ratio ED50 [5]: 650; Activity [6]: inactive; Activity [7]: inactive; Activity [8]: Active; Ratio ED50 [9]: 22
3 | CC(C)(C)NCC(O)COc1cccc(O)c1 (centres undefined) | 5.4 ×10⁻⁷ M | 2.1 ×10⁻⁸ M | 26 | inhibition [10]: Active
4 | CC(C)(C)NCC(O)COc1ccc(CS(C)(=O)=O)cc1 (centres undefined) | 4.8 ×10⁻⁵ M | 4.8 ×10⁻⁵ M | – | Activity [11]: 0%; Activity [12]: 0%; inhibition [13]: 78%
5 | CC(C)(C)NCC(O)COc1ccc(O)cc1 (centres undefined) | 5 ×10⁻⁸ M | 1.3 ×10⁻⁸ M | 3.8 | inhibition [14]: Active
6 | CC(C)NCC(O)c1ccc(O)cc1 (centres undefined) | 7.7 ×10⁻⁸ M | 1.1 ×10⁻⁷ M | 0.7 | –
7 | CC(C)(C)NCC(O)COc1ccc(NS(C)(=O)=O)c(O)c1 (centres undefined) | 9 ×10⁻⁵ M | 3400 nM | > 27 | Intrinsic activity [15]: 0.8; Activity [16]: 19%
8 | CC(C)(C)NCC(O)COc1ccc(O)c(NS(C)(=O)=O)c1 (centres undefined) | 1200 nM | 6.6 nM | 182 | inhibition [17]: 44%
9 | CC(C)NCC(O)c1ccc(O)c(O)c1 (centres undefined) | – | 7.1 nM | – | –
10 | CC(C)NCC(O)c1cccc(O)c1 (centres undefined) | 3.7 ×10⁻⁸ M | 4.5 ×10⁻⁸ M | 0.8 | –
11 | CC(C)(C)NC[C@H](O)c1ccc(O)c(O)c1 | 7.1 nM | 1.3 nM | 5.5 | –
